The record followed here is patent US20140057908A1, “Method of Treating Cancer” (Exelixis, Inc., priority 2010, published 2014).

Molecules are shown by their SMILES.

Series [1] is described as follows: gravimetric vapor sorption (GVS) study. It counts as physicochemical. The conditions noted are these: crystalline form; 25° C. and 90% humidity. The protocol: A gravimetric vapor sorption (GVS) study was run using a standard procedure. Samples were run on a dynamic vapor sorption analyzer (Surface Measurement Systems) running DVSCFR software. Sample sizes were typically 10 mg. A moisture adsorption desorption isotherm was performed as outlined below. The standard isotherm experiment, performed at 25° C., is a two-cycle run, starting at 40% RH, increasing humidity to 90% RH, decreasing humidity to 0% RH, increasing humidity again to 90% RH, and finally decreasing humidity to 0% RH in 10% RH intervals.

The subject of series [2] is xenograft tumor models. As to the kind of experiment: xenograft tumor models. The conditions noted are these: in vivo.
The test system of series [3] is pancreatic neuroendocrine tumor. Briefly: murine pancreatic neuroendocrine tumor model. The conditions noted are these: mouse, in vivo.
Series [4] deals with castration-resistant prostate cancer (CRPC) with bone metastases. Briefly: adaptive phase 2 trial (NCT00940225), case studies of the first three CRPC patients with bone metastases. It counts as in vivo, human. The conditions noted are these: for Bone scan (best response) / PSA (best response) / tALP (best response) / Hemoglobin (best response): 100 mg dose; for Hemoglobin (best response): change from baseline; for PSA: Week 18. The source says: All patients provided informed consent before study screening.

With `COc1cc2c(Oc3ccc(NC(=O)C4(C(=O)Nc5ccc(F)cc5)CC4)cc3F)ccnc2cc1OCCCN1CCOCC1` [Compound 2, N-[3-fluoro-4-({6-(methyloxy)-7-[(3-morpholin-4-ylpropyl)oxy]quinolin-4-yl}oxy)phenyl]-N′-(4-fluorophenyl)cyclopropane-1,1-dicarboxamide], the “weight gain (GVS)” value in series [1] stood at 2.5%. Besides, the “effect on tumors in xenograft tumor models” value in series [2] was “causes tumor regression”. In series [3], the overall survival result is on record as “substantially improves overall survival”; the “tumor invasiveness and metastasis” value was “significantly reduces tumor invasiveness and metastasis”.
With `COc1cc2nccc(Oc3ccc(NC(=O)C4(C(=O)Nc5ccc(F)cc5)CC4)cc3)c2cc1OC` [Compound 1, N-(4-{[6,7-bis(methyloxy)quinolin-4-yl]oxy}phenyl)-N′-(4-fluorophenyl)cyclopropane-1,1-dicarboxamide], in series [4] (Patient 1), the “Bone scan (best response)” value was “Complete”, the “PSA (best response)” value was −78%, the “tALP (best response)” value is −77% and the “Hemoglobin (best response)” value is “+1.4 g/dL”. In addition, in series [4] (Patient 1, Week 6), the CT scan response entry is recorded as “partial response (PR)” and the “decrease in measurable target lesions (CT scan)” value stood at 33%. The compound also had a PSA in series [4] (Patient 1, baseline 430 ng/mL) of 93.5 ng/mL. Further, in series [4] (Patient 2), the “PSA (best response)” value is listed as “+61%”, the “tALP (best response)” value is listed as −6% and the “Hemoglobin (best response)” value is reported as “+1.8 g/dL”. The “decrease in target lesions (CT scan)” value in series [4] (Patient 2, Week 6) stood at 13%. For the same compound, in series [4] (Patient 3), the “Bone scan (best response)” value is given as “Near resolution”, the “PSA (best response)” value is on record as −57%, the “tALP (best response)” value is on record as −77% and the “Hemoglobin (best response)” value is recorded as “+2.2 g/dL”. The “decrease in measurable target lesions (CT scan)” value in series [4] (Patient 3, Week 6) came to 43%. The compound also gave a PSA in series [4] (Patient 3, 2.4 ng/mL at screening) of 1.2 ng/mL. Further, in series [4] (all three patients), the “bone lesions, summary of three metastatic CRPC patients” value is reported as “near complete resolution of bone lesions” and the “uptake of radiotracer on bone scan, summary” value is on record as “striking decrease in uptake of radiotracer on bone scan”. The “effect on tumors in xenograft tumor models” value in series [2] is on record as “causes tumor regression”. In addition, in series [3], the overall survival result is recorded as “substantially improves overall survival”; the “tumor invasiveness and metastasis” value is “significantly reduces tumor invasiveness and metastasis”.
